# Test results reported in patent US10988477B2 (Merck Patent GmbH, priority 2018, dated 2021).
# Like-named read-outs stand apart in the source and are kept apart here.
# Legend:
# GCN2 kinase = GCN2 kinase (Homo sapiens, UniProt Q9P2K8); assay: GCN2 enzyme inhibition assay (Transcreener ADP2 fluorescence polarization); assay type: biochemical; settings: 280 μM ATP
# Method in brief: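 Kinase activity is followed as ADP formation, measured by fluorescence polarization, using 4 nM enzyme with 280 μM ATP and 200 μM (RS)7 peptide at pH 7.5 and 25 °C for 1 h. Values come from a non-linear tight-binding fit.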
# [1] = biological target: intracellular GCN2 (phosphorylation of the GCN2 substrate eIF2α) (Homo sapiens, UniProt Q9P2K8); assay: GCN2 cellular inhibition assay (AlphaScreen SureFire P-eIF2α Ser51, borrelidin-treated U2OS cells); assay type: cell-based
# Chain of intracellular GCN2 (phosphorylation of the GCN2 substrate eIF2α) (Q9P2K8 whole entry): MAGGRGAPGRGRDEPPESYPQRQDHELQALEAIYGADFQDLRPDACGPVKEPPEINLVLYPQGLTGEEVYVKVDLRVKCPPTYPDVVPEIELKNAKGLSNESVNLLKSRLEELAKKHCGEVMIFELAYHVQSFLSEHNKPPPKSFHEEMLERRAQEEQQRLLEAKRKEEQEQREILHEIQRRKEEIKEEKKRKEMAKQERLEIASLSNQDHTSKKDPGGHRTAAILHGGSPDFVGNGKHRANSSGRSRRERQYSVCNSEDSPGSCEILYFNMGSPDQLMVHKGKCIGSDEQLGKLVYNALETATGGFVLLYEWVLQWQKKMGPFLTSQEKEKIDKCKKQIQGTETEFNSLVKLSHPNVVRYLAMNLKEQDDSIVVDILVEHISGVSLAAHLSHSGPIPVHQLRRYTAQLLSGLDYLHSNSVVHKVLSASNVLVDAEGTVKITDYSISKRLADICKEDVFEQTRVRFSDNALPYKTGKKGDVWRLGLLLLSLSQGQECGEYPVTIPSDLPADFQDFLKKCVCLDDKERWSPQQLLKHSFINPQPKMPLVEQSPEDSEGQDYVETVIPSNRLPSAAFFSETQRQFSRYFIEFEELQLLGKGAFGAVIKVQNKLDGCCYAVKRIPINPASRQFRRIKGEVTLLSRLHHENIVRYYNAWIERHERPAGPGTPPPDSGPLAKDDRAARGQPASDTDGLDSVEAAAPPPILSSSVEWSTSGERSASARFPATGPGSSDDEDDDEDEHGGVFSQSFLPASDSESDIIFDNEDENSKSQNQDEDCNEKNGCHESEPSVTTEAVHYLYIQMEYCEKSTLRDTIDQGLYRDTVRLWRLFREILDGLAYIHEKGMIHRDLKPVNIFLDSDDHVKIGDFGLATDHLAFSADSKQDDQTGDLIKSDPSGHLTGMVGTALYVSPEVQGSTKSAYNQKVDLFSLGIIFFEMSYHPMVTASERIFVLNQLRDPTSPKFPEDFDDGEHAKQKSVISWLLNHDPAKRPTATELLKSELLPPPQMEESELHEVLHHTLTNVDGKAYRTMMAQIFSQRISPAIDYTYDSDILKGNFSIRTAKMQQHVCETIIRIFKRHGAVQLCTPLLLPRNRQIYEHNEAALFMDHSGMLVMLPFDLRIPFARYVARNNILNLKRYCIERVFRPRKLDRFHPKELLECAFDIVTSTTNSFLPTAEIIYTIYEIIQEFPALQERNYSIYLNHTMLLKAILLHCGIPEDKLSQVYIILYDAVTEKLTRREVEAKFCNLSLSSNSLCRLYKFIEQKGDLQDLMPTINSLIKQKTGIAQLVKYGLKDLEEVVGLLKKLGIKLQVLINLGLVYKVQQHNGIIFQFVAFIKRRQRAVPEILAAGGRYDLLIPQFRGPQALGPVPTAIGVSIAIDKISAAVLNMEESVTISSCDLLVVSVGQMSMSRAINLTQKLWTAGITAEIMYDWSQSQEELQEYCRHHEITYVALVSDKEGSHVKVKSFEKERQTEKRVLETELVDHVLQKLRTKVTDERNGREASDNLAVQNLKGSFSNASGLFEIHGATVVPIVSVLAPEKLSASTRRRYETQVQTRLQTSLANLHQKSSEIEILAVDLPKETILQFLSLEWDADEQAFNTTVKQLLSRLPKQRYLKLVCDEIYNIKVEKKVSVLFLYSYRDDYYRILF
# Method in brief: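 U2OS cells, adhered overnight, received compounds in 4-fold serial dilutions from 40 μM final, then 10 μM borrelidin for 1 h at 37 °C. Lysates were read by AlphaScreen for phospho-eIF2α Ser51; percent inhibition was set against borrelidin-only wells.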
# [2] = compounds of Formula II, 4 nM GCN2 kinase
# [3] = compounds of Formula II, biomarker assay, phosphorylated eIF2α Ser51 in borrelidin-treated U2OS cells
# [4] = Enzyme activity for compounds of Formula IV, Ki(app), 25° C.
# [5] = compounds of Formula IV, biomarker assay, phosphorylated eIF2α Ser51 in borrelidin-treated U2OS cells
# Chain of GCN2 kinase (Q9P2K8 whole entry): as above
Compound,Ki (GCN2 kinase; [2]) [nM],"IC50 [1, 3] [nM]",Ki (GCN2 kinase; [4]) [nM],"IC50 [1, 5] [nM]",further results
"CC(NS(C)(=O)=O)C1CN(c2ccnc(-c3cnc4ccc(C(F)F)nn34)c2)CCO1 (centres unmarked) [II-105, N-(1-(4-(2-(6-(Difluoromethyl)imidazo[1,2-b]pyridazin-3-yl)pyridin-4-yl)morpholin-2-yl)ethyl)methanesulfonamide]",< 10,500 to 5000,–,–,–
"CC(=O)N1CCN(c2ccnc(-c3cnc4cnc(CO)cn34)n2)CC1 [IV-26, 1-(4-(2-(6-(Hydroxymethyl)imidazo[1,2-a]pyrazin-3-yl)pyrimidin-4-yl)piperazin-1-yl)ethan-1-one]",–,–,100 to 1000,> 5000,–
"CC1C(CNS(C)(=O)=O)OC(C)(C)CN1c1cc(-c2cnc3ccc(C(F)F)nn23)ncn1 (single isomer, unassigned) [II-484, N-((4-(6-(6-(Difluoromethyl)imidazo[1,2-b]pyridazin-3-yl)pyrimidin-4-yl)-3,6,6-trimethylmorpholin-2-yl)methyl)methanesulfonamide]",10 to 1000,500 to 5000,–,–,–
"OC1CCN(c2ccnc(-c3cnc4cnc(C(F)(F)F)cn34)n2)CC1c1cn[nH]c1 (single isomer, unassigned) [IV-623, 3-(1H-Pyrazol-4-yl)-1-(2-(6-(trifluoromethyl)imidazo[1,2-a]pyrazin-3-yl)pyrimidin-4-yl)piperidin-4-ol]",–,–,< 10,< 500,–
"C[C@@H]1C[C@H](c2cn[nH]c2)CN(c2ccnc(-c3cnc4cnc(C(F)(F)F)cn34)n2)C1 [IV-770, 3-(4-((3R,5R)-3-methyl-5-(1H-pyrazol-4-yl)piperidin-1-yl)pyrimidin-2-yl)-6-(trifluoromethyl)imidazo[1,2-a]pyrazine]",–,–,–,< 500,"IC50 (GCN2 kinase; compounds of Formula IV, 4 nM GCN2 kinase): 10 to 1000 nM"
"COC1CC(CNS(C)(=O)=O)CN(c2cc(-c3cnc4ccc(C(F)F)nn34)ncn2)C1 (centres unmarked) [II-198, N-((1-(6-(6-(Difluoromethyl)imidazo[1,2-b]pyridazin-3-yl)pyrimidin-4-yl)-5-methoxypiperidin-3-yl)methyl)methanesulfonamide]",10 to 1000,> 5000,–,–,–
"CC1C(CNS(C)(=O)=O)CN(c2cc(-c3cnc4ccc(C(F)F)nn34)ncn2)CC1(F)F (centres unmarked) [II-382, N-((1-(6-(6-(Difluoromethyl)imidazo[1,2-b]pyridazin-3-yl)pyrimidin-4-yl)-5,5-difluoro-4-methylpiperidin-3-yl)methyl)methanesulfonamide]",10 to 1000,500 to 5000,–,–,–
"CS(=O)(=O)NC[C@H]1CN(c2cc(-c3cnc4ccc(C(F)F)nn34)ncn2)C[C@@H](C(F)(F)F)O1 [II-306, N-(((2R,6S)-4-(6-(6-(Difluoromethyl)imidazo[1,2-b]pyridazin-3-yl)pyrimidin-4-yl)-6-(trifluoromethyl)morpholin-2-yl)methyl)methanesulfonamide]",10 to 1000,500 to 5000,–,–,–
"FC(F)(F)c1cn2c(-c3nccc(N4CC(c5cn[nH]c5)N5CCC[C@H]5C4)n3)cnc2cn1 (stereo partly drawn) [IV-679, 3-(4-((8aS)-4-(1H-Pyrazol-4-yl)hexahydropyrrolo[1,2-a]pyrazin-2(1H)-yl)pyrimidin-2-yl)-6-(trifluoromethyl)imidazo[1,2-a]pyrazine]",–,–,< 10,500 to 5000,–
"O=C(NCCO)C1CCCN(c2cc(-c3cnc4ccc(C(F)F)nn34)ncn2)C1 (centres unmarked) [II-191, 1-(6-(6-(Difluoromethyl)imidazo[1,2-b]pyridazin-3-yl)pyrimidin-4-yl)-N-(2-hydroxyethyl)piperidine-3-carboxamide]",10 to 1000,> 5000,–,–,–
"OC1CCN(c2ccnc(-c3cnc4cnc(C(F)F)cn34)n2)C1 (centres unmarked) [IV-72, 1-(2-(6-(Difluoromethyl)imidazo[1,2-a]pyrazin-3-yl)pyrimidin-4-yl)pyrrolidin-3-ol]",–,–,100 to 1000,> 5000,–
"CC1CN(c2ccnc(-c3cnc4ccc(C(F)F)nn34)c2)CC(CNS(C)(=O)=O)C1(F)F (centres unmarked) [II-75, N-((1-(2-(6-(Difluoromethyl)imidazo[1,2-b]pyridazin-3-yl)pyridin-4-yl)-4,4-difluoro-5-methylpiperidin-3-yl)methyl)methanesulfonamide]",< 10,< 500,–,–,–
"CS(=O)(=O)NC[C@@H]1CN(c2cc(-c3cnn4ccc(C(F)F)nc34)ncn2)CCO1 [III-4, N-[[(2S)-4-[6-[5-(Difluoromethyl)pyrazolo[1,5-a]pyrimidin-3-yl]pyrimidin-4-yl]morpholin-2-yl]methyl]methanesulfonamide]",–,–,–,–,"Ki (GCN2 kinase; compounds of Formula III, 4 nM GCN2 kinase): < 10 nM; IC50 ([1]; compounds of Formula III, U2OS cells, 10 μM borrelidin, 1 h, read-out: GCN2 Biomarker (IC50)): < 500 nM"
"CS(=O)(=O)NCC1CC(O)CN(c2cc(-c3cnc4ccc(C(F)F)nn34)ccn2)C1 (centres unmarked) [II-40, N-((1-(4-(6-(Difluoromethyl)imidazo[1,2-b]pyridazin-3-yl)pyridin-2-yl)-5-hydroxypiperidin-3-yl)methyl)methanesulfonamide]",< 10,< 500,–,–,–
"CN(C)S(=O)(=O)C1CCCN(c2ccnc(-c3cnc4cnc(C(F)F)cn34)n2)C1 (centres unmarked) [IV-170, 1-(2-(6-(Difluoromethyl)imidazo[1,2-a]pyrazin-3-yl)pyrimidin-4-yl)-N,N-dimethylpiperidine-3-sulfonamide]",–,–,100 to 1000,> 5000,–
"CC1CN(c2cncc(-c3cnc4cnc(C(F)(F)F)cn34)n2)C(C)C(c2cn[nH]c2)N1 (centres unmarked) [IV-577, 3-(6-(2,5-Dimethyl-3-(1H-pyrazol-4-yl)piperazin-1-yl)pyrazin-2-yl)-6-(trifluoromethyl)imidazo[1,2-a]pyrazine]",–,–,< 10,500 to 5000,–
"CC(=O)NC1CCN(c2cc(-c3cnc4ccc(-c5cccnc5)nn34)ccn2)CC1 [II-735, N-(1-(4-(6-(pyridin-3-yl)imidazo[1,2-b]pyridazin-3-yl)pyridin-2-yl)piperidin-4-yl)acetamide]",> 1000,> 5000,–,–,–
"Cc1[nH]ncc1[C@H]1CN(c2cc(-c3cnc4ccc(C(F)(F)F)nn34)ncn2)C[C@H](C)O1 [II-765, (2S,6S)-2-methyl-6-(5-methyl-1H-pyrazol-4-yl)-4-(6-(6-(trifluoromethyl)imidazo[1,2-b]pyridazin-3-yl)pyrimidin-4-yl)morpholine]",–,> 5000,–,–,IC50 (GCN2 kinase; [2]): 10 to 1000 nM
"O=C1CCC2CN(c3ccnc(-c4cnc5cnc(C(F)F)cn45)n3)CCN12 (centres unmarked) [IV-98, 2-(2-(6-(Difluoromethyl)imidazo[1,2-a]pyrazin-3-yl)pyrimidin-4-yl)hexahydropyrrolo[1,2-a]pyrazin-6(2H)-one]",–,–,100 to 1000,> 5000,–
"COc1cn2c(-c3nccc(N4CCN(C(C)=O)CC4)n3)cnc2cn1 [IV-25, 1-(4-(2-(6-Methoxyimidazo[1,2-a]pyrazin-3-yl)pyrimidin-4-yl)piperazin-1-yl)ethan-1-one]",–,–,100 to 1000,> 5000,–
"CS(=O)(=O)NC[C@@H]1CN(c2cc(-c3cnc4ccc(C(F)F)nn34)ncn2)CC(=O)N1 [II-25, (S)—N-((4-(6-(6-(Difluoromethyl)imidazo[1,2-b]pyridazin-3-yl)pyrimidin-4-yl)-6-oxopiperazin-2-yl)methyl)methanesulfonamide]",10 to 1000,> 5000,–,–,–
"COc1cc(-c2cnc3ccc(C(F)F)nn23)cc(N2CCC[C@H](CNS(C)(=O)=O)C2)n1 [II-120, (S)—N-((1-(4-(6-(Difluoromethyl)imidazo[1,2-b]pyridazin-3-yl)-6-methoxypyridin-2-yl)piperidin-3-yl)methyl)methanesulfonamide]",< 10,> 5000,–,–,–
